In one test the target is T1, MmNAGS-K (Maricaulis maris, UniProt Q0ASS9).
T1 construct: gene Mmar10_0365
T1 sequence (Q0ASS9 1-441): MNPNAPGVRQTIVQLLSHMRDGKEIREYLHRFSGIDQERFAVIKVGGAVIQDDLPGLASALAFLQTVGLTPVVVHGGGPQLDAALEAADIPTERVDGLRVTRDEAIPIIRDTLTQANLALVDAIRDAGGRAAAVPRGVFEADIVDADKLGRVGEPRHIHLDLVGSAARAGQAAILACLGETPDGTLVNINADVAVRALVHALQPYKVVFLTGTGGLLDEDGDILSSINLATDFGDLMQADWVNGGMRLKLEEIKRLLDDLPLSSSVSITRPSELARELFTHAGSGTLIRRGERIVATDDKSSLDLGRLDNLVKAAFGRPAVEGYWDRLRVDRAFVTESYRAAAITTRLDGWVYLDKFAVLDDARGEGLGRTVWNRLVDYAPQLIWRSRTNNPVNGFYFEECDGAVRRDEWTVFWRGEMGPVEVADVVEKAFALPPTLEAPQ
The test can be described thus: Thermofluor thermal shift, SYPRO Orange. Type of test: binding. As to conditions: read-out: change in Tm at 10 mM.

For test [1], the target named is T2, mNAGS-M (Mus musculus, UniProt Q8R4H7).
T2 construct: gene Nags; mature form, mitochondrial targeting signal removed, variable segment kept
T2 sequence (Q8R4H7 51-527): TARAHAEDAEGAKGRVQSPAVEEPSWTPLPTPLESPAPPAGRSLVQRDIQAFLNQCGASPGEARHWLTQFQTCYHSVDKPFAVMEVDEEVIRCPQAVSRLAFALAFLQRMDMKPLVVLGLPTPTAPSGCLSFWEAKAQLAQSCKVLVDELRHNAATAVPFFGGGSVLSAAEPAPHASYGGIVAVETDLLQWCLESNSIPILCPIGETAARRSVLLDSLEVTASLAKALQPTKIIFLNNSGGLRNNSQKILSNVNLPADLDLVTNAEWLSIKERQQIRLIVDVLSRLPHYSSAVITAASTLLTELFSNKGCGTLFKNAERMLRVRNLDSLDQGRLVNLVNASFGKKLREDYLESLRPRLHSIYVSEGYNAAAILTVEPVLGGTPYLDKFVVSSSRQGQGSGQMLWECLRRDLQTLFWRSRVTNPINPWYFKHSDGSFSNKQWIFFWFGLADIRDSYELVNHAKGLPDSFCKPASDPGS
Briefly: NAGS activity assay after […] min preincubation at […]-45 °C. Type of test: biochemical. The following applies: 1 mM L-arginine; assayed at 30 °C; allosteric activator; range covers mNAGS-M and mNAGS-C.

The target of test [2] is T2, mNAGS-M. The test can be described thus: Thermofluor thermal shift, SYPRO Orange. The format is binding. As to conditions: read-out: change in Tm at 10 mM.
The target of the next test is T3, NgNAGS (Neisseria gonorrhoeae, UniProt Q5FAK7).
T3 construct: gene argA; hexamer
T3 sequence (Q5FAK7 1-436): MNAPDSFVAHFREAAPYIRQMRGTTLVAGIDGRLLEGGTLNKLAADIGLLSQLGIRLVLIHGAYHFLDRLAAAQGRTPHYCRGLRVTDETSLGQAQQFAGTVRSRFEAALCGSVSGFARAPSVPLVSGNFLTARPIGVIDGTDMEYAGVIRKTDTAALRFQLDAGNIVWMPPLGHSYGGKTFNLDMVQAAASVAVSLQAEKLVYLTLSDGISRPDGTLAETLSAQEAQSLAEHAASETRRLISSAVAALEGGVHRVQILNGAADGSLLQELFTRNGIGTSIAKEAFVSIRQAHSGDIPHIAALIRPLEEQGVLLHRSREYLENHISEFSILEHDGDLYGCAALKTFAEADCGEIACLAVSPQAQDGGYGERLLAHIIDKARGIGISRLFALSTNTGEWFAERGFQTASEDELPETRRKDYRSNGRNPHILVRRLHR
Briefly: Thermofluor thermal shift, SYPRO Orange. The following applies: read-out: change in Tm at 1 mM. Type of test: binding.

Test [3] addresses T4, mNAGS-C (Mus musculus, UniProt Q8R4H7).
T4 construct: gene Nags; conserved segment only, mitochondrial targeting signal and variable segment removed
T4 sequence (Q8R4H7 84-527 limits assumed): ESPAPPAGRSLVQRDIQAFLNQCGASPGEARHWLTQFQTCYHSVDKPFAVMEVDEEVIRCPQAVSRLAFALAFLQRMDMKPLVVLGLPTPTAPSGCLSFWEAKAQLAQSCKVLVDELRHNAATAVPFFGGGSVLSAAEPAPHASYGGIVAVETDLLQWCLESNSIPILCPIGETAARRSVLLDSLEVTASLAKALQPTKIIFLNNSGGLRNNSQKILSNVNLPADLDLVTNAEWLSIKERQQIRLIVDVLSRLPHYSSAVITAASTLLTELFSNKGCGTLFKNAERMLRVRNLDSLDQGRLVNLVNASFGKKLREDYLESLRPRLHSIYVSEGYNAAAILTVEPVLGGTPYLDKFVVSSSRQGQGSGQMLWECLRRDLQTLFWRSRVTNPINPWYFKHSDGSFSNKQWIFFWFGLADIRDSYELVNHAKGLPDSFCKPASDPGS
Briefly: NAGS activity assay after […] min preincubation at […]-45 °C. Type of test: biochemical. As to conditions: 1 mM L-arginine; assayed at 30 °C; allosteric activator; range covers mNAGS-M and mNAGS-C.

Test [4] concerns the target T4, mNAGS-C. The test can be described thus: Thermofluor thermal shift, SYPRO Orange. Type of test: binding. As to conditions: read-out: change in Tm at 10 mM.
Another test deals with T5, XcNAGS-K (Xanthomonas campestris, UniProt B0RS52).
T5 construct: gene argB
T5 sequence (B0RS52 1-447): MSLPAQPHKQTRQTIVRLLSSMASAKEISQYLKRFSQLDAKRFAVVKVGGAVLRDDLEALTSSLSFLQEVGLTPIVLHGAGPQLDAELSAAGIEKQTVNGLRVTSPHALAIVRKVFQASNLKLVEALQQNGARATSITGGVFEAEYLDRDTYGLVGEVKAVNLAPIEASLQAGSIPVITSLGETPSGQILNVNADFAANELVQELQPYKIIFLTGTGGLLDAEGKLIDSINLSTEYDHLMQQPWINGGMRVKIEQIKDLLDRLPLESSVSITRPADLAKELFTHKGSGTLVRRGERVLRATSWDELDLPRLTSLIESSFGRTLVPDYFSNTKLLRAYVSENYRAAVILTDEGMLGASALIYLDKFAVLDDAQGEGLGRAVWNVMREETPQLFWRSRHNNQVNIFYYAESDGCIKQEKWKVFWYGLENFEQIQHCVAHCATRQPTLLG
The test can be described thus: sedimentation velocity ultracentrifugation and Thermofluor. Type of test: binding. As to conditions: 1 mM L-arginine; 10 mM Tris, 50 mM KCl, 1 mM TCEP, pH 8.0, 20 °C (ultracentrifugation); allosteric.

Test [5] has as its target bifunctional N-acetylglutamate synthase-kinase from Xanthomonas campestris (Xanthomonas campestris). The test can be described thus: AUC; sedimentation velocity, sw isotherm fitted to a tetramer-octamer association model (octamer to tetramers); with 1 mM L-arginine; 20 °C, 50,000 rpm, 10 mM Tris, 50 mM KCl, 1 mM TCEP, pH 8.0.
Test [6] shares this target. Briefly: AUC; sedimentation velocity, global fit of raw data with explicit Lamm equation solutions and reaction kinetics, tetramer-octamer model (octamer to tetramers); without L-arginine; 35, 26, 17, 12, 9, 4 and 2 uM monomer, 20 °C, 10 mM Tris, 50 mM KCl, 1 mM TCEP.
Test [7] has the same target. Briefly: AUC; sedimentation velocity, c(s) distributions and sw isotherm fitted to a tetramer-octamer association model (octamer to tetramers); without L-arginine; 2-40 uM monomer, 20 °C, 50,000 rpm, 10 mM Tris, 50 mM KCl, 1 mM TCEP, pH 8.0.

Values joined by “and” are separate entries in the source; they are usually repeats but may differ in a detail not shown here. Identical values can stand only once.

`N=C(N)NCCC[C@H](N)C(=O)O` [L-arginine]: the ΔTm at 10000 µM on MmNAGS-K is about 10 °C; on mNAGS-M [2], about 5 °C; on mNAGS-C [4], about 5 °C. Further, the “fold increase of specific activity at 1 mM” value on mNAGS-M [1] and at mNAGS-C [3] was 1.5- to 4 each time. In addition, the ΔTm at 1000 µM on NgNAGS was about -2.5 °C. The “sedimentation velocity ultracentrifugation and Thermofluor” value at XcNAGS-K was “equilibrium between XcNAGS-K tetramers and octamers depends on the presence and binding of L-arginine”.
“bifunctional N-acetylglutamate synthase-kinase from Xanthomonas campestris (enzyme)” returned a Kd in [5] of 37000 nM. In test [6], the Kd turned out to be 2600 nM, the half-life for the octamer amounted to 45 min and the log10koff was -3.6. Further, in [7], the Kd is 2900 nM; the stoichiometry N was 4 and 8.

These data come from article PMC5146650, “Effect of arginine on oligomerization and stability of N-acetylglutamate synthase” (Scientific Reports, 2016).
